Reference: ChEMBL document CHEMBL1152089, “Alkyl ether derivatives of the FK-506 related, immunosuppressive macrolide L-683,742 (C31-O-desmethyl ascomycin)” (Bioorg Med Chem Lett, 1994)

Experiments:
[1] = biological target: T1, Peptidyl-prolyl cis-trans isomerase FKBP1A (Homo sapiens, UniProt P62942); experiment: Ability to bind the major cystolic receptor FK506 binding protein 12 by using competitive binding assay
[2] = species on record: Mus musculus; experiment: In vitro immunosuppressive activity against proliferation of antigen stimulated murine splenic T cells; assay type: functional, organism-based; settings: T-cell
[3] = biological target: T1, Peptidyl-prolyl cis-trans isomerase FKBP1A; experiment: Ability to bind the major cystolic receptor FKBP12 by using competitive binding assay

T1 sequence (P62942 whole entry): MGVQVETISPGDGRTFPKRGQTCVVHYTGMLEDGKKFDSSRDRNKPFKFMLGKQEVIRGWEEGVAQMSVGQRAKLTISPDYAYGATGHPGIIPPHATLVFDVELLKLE

EC50 [1] [nM] | EC50 [3] [nM] | SMILES | IC50 [2] [nM]
2.7 | – | C=CCO[C@@H]1C[C@H](/C=C(\C)[C@H]2OC(=O)[C@@H]3CCCCN3C(=O)C(=O)C3(O)O[C@H]([C@@H](OC)C[C@@H](C)C/C(C)=C/[C@@H](CC)C(=O)C[C@H](O)[C@H]2C)[C@@H](OC)C[C@@H]3C)CC[C@H]1O | 0.68
6.1 | – | C=CCO[C@@H]1CC[C@@H](/C=C(\C)[C@H]2OC(=O)[C@@H]3CCCCN3C(=O)C(=O)C3(O)O[C@H]([C@@H](OC)C[C@@H](C)C/C(C)=C/[C@@H](CC)C(=O)C[C@H](O)[C@H]2C)[C@@H](OC)C[C@@H]3C)C[C@H]1O | 5.5
14.9 | – | C=CC(C)O[C@@H]1CC[C@@H](/C=C(\C)[C@H]2OC(=O)[C@@H]3CCCCN3C(=O)C(=O)C3(O)O[C@H]([C@@H](OC)C[C@@H](C)C/C(C)=C/[C@@H](CC)C(=O)C[C@H](O)[C@H]2C)[C@@H](OC)C[C@@H]3C)C[C@H]1O (some centres not stated) | 6.6
5 | – | CC[C@@H]1/C=C(\C)C[C@H](C)C[C@H](OC)[C@H]2O[C@@](O)(C(=O)C(=O)N3CCCC[C@H]3C(=O)O[C@H](/C(C)=C/[C@@H]3CC[C@@H](O)[C@H](O)C3)[C@H](C)[C@@H](O)CC1=O)[C@@H](C)C[C@@H]2OC | 1.8
6.6 | – | C=CC(C)O[C@@H]1C[C@H](/C=C(\C)[C@H]2OC(=O)[C@@H]3CCCCN3C(=O)C(=O)C3(O)O[C@H]([C@@H](OC)C[C@@H](C)C/C(C)=C/[C@@H](CC)C(=O)C[C@H](O)[C@H]2C)[C@@H](OC)C[C@@H]3C)CC[C@H]1O (some centres not stated) | 0.73
12 | – | CC[C@@H]1/C=C(\C)C[C@H](C)C[C@H](OC)[C@H]2OC(O)(C(=O)C(=O)N3CCCC[C@H]3C(=O)O[C@H](/C(C)=C/[C@@H]3CC[C@@H](OCc4ccsc4)[C@H](O)C3)[C@H](C)[C@@H](O)CC1=O)[C@@H](C)C[C@@H]2OC | 4.4
9.2 | – | C/C=C/CO[C@@H]1CC[C@@H](/C=C(\C)[C@H]2OC(=O)[C@@H]3CCCCN3C(=O)C(=O)C3(O)O[C@H]([C@@H](OC)C[C@@H](C)C/C(C)=C/[C@@H](CC)C(=O)C[C@H](O)[C@H]2C)[C@@H](OC)C[C@@H]3C)C[C@H]1O | 8.6
– | 3.4 | CC[C@@H]1/C=C(\C)C[C@H](C)C[C@H](OC)[C@H]2OC(O)(C(=O)C(=O)N3CCCC[C@H]3C(=O)O[C@H](/C(C)=C/[C@@H]3CC[C@@H](O)[C@H](OC(C)C)C3)[C@H](C)[C@@H](O)CC1=O)[C@@H](C)C[C@@H]2OC | 0.59
5.7 | – | CC[C@@H]1/C=C(\C)C[C@H](C)C[C@H](OC)[C@H]2OC(O)(C(=O)C(=O)N3CCCC[C@H]3C(=O)O[C@H](/C(C)=C/[C@@H]3CC[C@@H](O)[C@H](OCc4ccsc4)C3)[C@H](C)[C@@H](O)CC1=O)[C@@H](C)C[C@@H]2OC | 3.2

Further lines, the molecule ahead of its results:

SMILES | EC50 [1] [nM] | EC50 [3] [nM] | IC50 [2] [nM]
C=C(C)CO[C@@H]1C[C@H](/C=C(\C)[C@H]2OC(=O)[C@@H]3CCCCN3C(=O)C(=O)C3(O)O[C@H]([C@@H](OC)C[C@@H](C)C/C(C)=C/[C@@H](CC)C(=O)C[C@H](O)[C@H]2C)[C@@H](OC)C[C@@H]3C)CC[C@H]1O | – | – | 1.9
CC[C@@H]1/C=C(\C)C[C@H](C)C[C@H](OC)[C@H]2OC(O)(C(=O)C(=O)N3CCCC[C@H]3C(=O)O[C@H](/C(C)=C/[C@@H]3CC[C@@H](OCc4ccco4)[C@H](O)C3)[C@H](C)[C@@H](O)CC1=O)[C@@H](C)C[C@@H]2OC | 15.6 | – | 7.8
C/C=C/CO[C@@H]1C[C@H](/C=C(\C)[C@H]2OC(=O)[C@@H]3CCCCN3C(=O)C(=O)C3(O)O[C@H]([C@@H](OC)C[C@@H](C)C/C(C)=C/[C@@H](CC)C(=O)C[C@H](O)[C@H]2C)[C@@H](OC)C[C@@H]3C)CC[C@H]1O | 7 | – | 2.1
CC[C@@H]1/C=C(\C)C[C@H](C)C[C@H](OC)[C@H]2OC(O)(C(=O)C(=O)N3CCCC[C@H]3C(=O)O[C@H](/C(C)=C/[C@@H]3CC[C@@H](O)[C@H](OCc4ccco4)C3)[C@H](C)[C@@H](O)CC1=O)[C@@H](C)C[C@@H]2OC | 4.6 | – | 3.6
C=C(C)CO[C@@H]1CC[C@@H](/C=C(\C)[C@H]2OC(=O)[C@@H]3CCCCN3C(=O)C(=O)C3(O)O[C@H]([C@@H](OC)C[C@@H](C)C/C(C)=C/[C@@H](CC)C(=O)C[C@H](O)[C@H]2C)[C@@H](OC)C[C@@H]3C)C[C@H]1O | – | – | 3.4
CC[C@@H]1/C=C(\C)C[C@H](C)C[C@H](OC)[C@H]2OC(O)(C(=O)C(=O)N3CCCC[C@H]3C(=O)O[C@H](/C(C)=C/[C@@H]3CC[C@@H](O)[C@H](OCc4cccs4)C3)[C@H](C)[C@@H](O)CC1=O)[C@@H](C)C[C@@H]2OC | 10.3 | – | 1.1
CC[C@@H]1/C=C(\C)C[C@H](C)C[C@H](OC)[C@H]2OC(O)(C(=O)C(=O)N3CCCC[C@H]3C(=O)O[C@H](/C(C)=C/[C@@H]3CC[C@@H](OC(C)C)[C@H](O)C3)[C@H](C)[C@@H](O)CC1=O)[C@@H](C)C[C@@H]2OC | – | – | 9.1
CC[C@@H]1/C=C(\C)C[C@H](C)C[C@H](OC)[C@H]2OC(O)(C(=O)C(=O)N3CCCC[C@H]3C(=O)O[C@H](/C(C)=C/[C@@H]3CC[C@@H](OCc4cccs4)[C@H](O)C3)[C@H](C)[C@@H](O)CC1=O)[C@@H](C)C[C@@H]2OC | 11.8 | – | 2.8
C=CC[C@@H]1/C=C(\C)C[C@H](C)C[C@H](OC)[C@H]2O[C@@](O)(C(=O)C(=O)N3CCCC[C@H]3C(=O)O[C@H](/C(C)=C/[C@@H]3CC[C@@H](O)[C@H](OC)C3)[C@H](C)[C@@H](O)CC1=O)C(C)C[C@@H]2OC (single isomer, unassigned) [TACROLIMUS ANHYDROUS] | – | – | 0.29
